# Measured values reported in article PMC4965013, “Open Source Drug Discovery with the Malaria Box Compound Collection for Neglected Diseases and Beyond” (PLoS Pathogens, 2016).
# Experiments:
# [1] = test system: P. falciparum 3D7 trophozoites; assay: Metabolomic fingerprint profiling LC-MS; assay type: cell-based, Plasmodium falciparum; set-up: UDP-D-glucose / ADP-D-glucose: unit not given here; conditions: for Acetyllysine / N-acetyl-L-ornithine / N-carbamoyl-L-aspartate / NADPH / dAMP / dCMP / dTDP / dTMP / dTTP / dihydroorotate / orotate / DLH / DLS/SDL/SID / PD / PEE / PVNF / 3-phosphoglycerate / ADP-D-glucose / ATP / CDP / D-sedoheptulose-1/7-phosphate / FAD / GMP / NAD+ / NADP+ / Octoluse Bisphosphate / Pyroglutamic acid / UDP-D-glucose / UDP-D-glucuronate / UDP-N-acetyl-glucosamine / UDP / UMP / UTP / a-ketoglutarate / citrate/isocitrate / cytidine / dATP / dGMP/AMP / fumarate / glucose-1/6-phosphate / glycerate / guanine / guanosine / hypoxanthine / indole / inosine / nicotinate / ornithine / phosphoenolpyruvate / pyruvate / ribose-phosphate / sarcosine/alanine / sn-glycerol-3-phosphate / succinate/methylmalonic acid / uridine / xanthosine: S2 Table Metabolomics; for Acetyllysine: metabolite Acetyllysine; for N-acetyl-L-ornithine: metabolite N-acetyl-L-ornithine; for N-carbamoyl-L-aspartate: metabolite N-carbamoyl-L-aspartate; for NADPH: metabolite NADPH; for dAMP: metabolite dAMP; for dCMP: metabolite dCMP; for dTDP: metabolite dTDP; for dTMP: metabolite dTMP; for dTTP: metabolite dTTP; for dihydroorotate: metabolite dihydroorotate; for orotate: metabolite orotate; for DLH: peptide DLH; for DLS/SDL/SID: peptide DLS/SDL/SID; for PD: peptide PD; for PEE: peptide PEE; for PVNF: peptide PVNF; for 3-phosphoglycerate: metabolite 3-phosphoglycerate; for ADP-D-glucose: metabolite ADP-D-glucose; for ATP: metabolite ATP; for CDP: metabolite CDP; for CDP / D-sedoheptulose-1/7-phosphate / GMP / Octoluse Bisphosphate / UDP / UMP / UTP / citrate/isocitrate / dGMP/AMP / fumarate / glucose-1/6-phosphate / glycerate / guanine / guanosine / inosine / pyruvate / sarcosine/alanine / succinate/methylmalonic acid / uridine / xanthosine: change in metabolite level after compound treatment; for D-sedoheptulose-1/7-phosphate: metabolite D-sedoheptulose-1/7-phosphate; for FAD: metabolite FAD; for GMP: metabolite GMP; for NAD+: metabolite NAD+; for NADP+: metabolite NADP+; for Octoluse Bisphosphate: metabolite Octoluse Bisphosphate; for Pyroglutamic acid: metabolite Pyroglutamic acid; for UDP-D-glucose: metabolite UDP-D-glucose; for UDP-D-glucuronate: metabolite UDP-D-glucuronate; for UDP-N-acetyl-glucosamine: metabolite UDP-N-acetyl-glucosamine; for UDP: metabolite UDP; for UMP: metabolite UMP; for UTP: metabolite UTP; for a-ketoglutarate: metabolite a-ketoglutarate; for citrate/isocitrate: metabolite citrate/isocitrate; for cytidine: metabolite cytidine; for dATP: metabolite dATP; for dGMP/AMP: metabolite dGMP/AMP; for fumarate: metabolite fumarate; for glucose-1/6-phosphate: metabolite glucose-1/6-phosphate; for glycerate: metabolite glycerate; for guanine: metabolite guanine; for guanosine: metabolite guanosine; for hypoxanthine: metabolite hypoxanthine; for indole: metabolite indole; for inosine: metabolite inosine; for 2_3-Diphosphoglyceric acid / 4-phosphopantothenate / 6-phospho-D-gluconate / FMN / IMP / Pyrophosphate / Sedoheptoluse bisphosphate / cyclic-AMP / glutathione disulfide / lactate / myo-inositol: metabolite level change after treatment; for nicotinate: metabolite nicotinate; for ornithine: metabolite ornithine; for phosphoenolpyruvate: metabolite phosphoenolpyruvate; for pyruvate: metabolite pyruvate; for ribose-phosphate: metabolite ribose-phosphate; for sarcosine/alanine: metabolite sarcosine/alanine; for sn-glycerol-3-phosphate: metabolite sn-glycerol-3-phosphate; for succinate/methylmalonic acid: metabolite succinate/methylmalonic acid; for uridine: metabolite uridine; for xanthosine: metabolite xanthosine
# P. falciparum = assay: EC50 listed in S2 Table Metabolomics (used to set the concentration tested); assay type: cell-based; conditions: Plasmodium falciparum; EC50 used for Factor_XEC50 in metabolomics; read-out: EC50_nM
compound,measurement,setting,value
COc1ccccc1CNC(=O)CCn1c(=O)[nH]c2ccsc2c1=O [MMV019066],Acetyllysine,[1],0.07735
same,N-acetyl-L-ornithine,[1],-0.0529
same,N-carbamoyl-L-aspartate,[1],0.05336
same,NADPH,[1],-0.3877
same,dAMP,[1],-0.3418
same,dCMP,[1],-0.4851
same,dTDP,[1],0.1634
same,dTMP,[1],0.1236
same,dTTP,[1],-0.2106
same,dihydroorotate,[1],0.243
same,orotate,[1],-0.2
same,DLH,[1],-0.2144
same,DLS/SDL/SID,[1],-0.3411
same,PD,[1],0.09576
same,PEE,[1],0.0022
same,PVNF,[1],-0.1895
same,3-phosphoglycerate,[1],-0.09413
same,ADP-D-glucose,[1],-0.05903
same,ATP,[1],-0.2412
same,CDP,[1],0.1136
same,D-sedoheptulose-1/7-phosphate,[1],0.1088
same,FAD,[1],0.05372
same,GMP,[1],0.1058
same,NAD+,[1],0.8616
same,NADP+,[1],-0.0134
same,Octoluse Bisphosphate,[1],-0.2214
same,Pyroglutamic acid,[1],-0.1934
same,UDP-D-glucose,[1],0.05907
same,UDP-D-glucuronate,[1],-0.137
same,UDP-N-acetyl-glucosamine,[1],0.07368
same,UDP,[1],0.06631
same,UMP,[1],0.4511
same,UTP,[1],-0.2134
same,a-ketoglutarate,[1],-0.0676
same,citrate/isocitrate,[1],-0.2257
same,cytidine,[1],0.1038
same,dATP,[1],-0.07834
same,dGMP/AMP,[1],0.0855
same,fumarate,[1],1.364
same,glucose-1/6-phosphate,[1],0.5644
same,glycerate,[1],-0.201
same,guanine,[1],0.002341
same,guanosine,[1],-0.12
same,hypoxanthine,[1],-0.07458
same,indole,[1],-0.09687
same,inosine,[1],-0.05497
same,2_3-Diphosphoglyceric acid,[1],-0.2512
same,4-phosphopantothenate,[1],-0.02128
same,6-phospho-D-gluconate,[1],-0.003238
same,FMN,[1],-0.1662
same,IMP,[1],0.2187
same,Pyrophosphate,[1],-0.2235
same,Sedoheptoluse bisphosphate,[1],-0.07937
same,cyclic-AMP,[1],-0.08199
same,glutathione disulfide,[1],0.08045
same,lactate,[1],-0.3675
same,myo-inositol,[1],-0.05445
same,nicotinate,[1],-0.03534
same,ornithine,[1],0.2934
same,phosphoenolpyruvate,[1],-0.1195
same,pyruvate,[1],-0.02123
same,ribose-phosphate,[1],-0.1454
same,sarcosine/alanine,[1],0.007595
same,sn-glycerol-3-phosphate,[1],-0.1485
same,succinate/methylmalonic acid,[1],0.2071
same,uridine,[1],0.04529
same,xanthosine,[1],-0.08771
same,EC50,P. falciparum,140 nM
CCCc1cc(O)c2c3c(c(=O)oc2c1)CN(C)CC3 [MMV665841],Acetyllysine,[1],-2.612
same,N-acetyl-L-ornithine,[1],-1.949
same,N-carbamoyl-L-aspartate,[1],-0.955
same,NADPH,[1],0.07097
same,dAMP,[1],-0.5338
same,dCMP,[1],0.378
same,dTDP,[1],-0.09857
same,dTMP,[1],-0.08494
same,dTTP,[1],0.3392
same,dihydroorotate,[1],-0.7381
same,orotate,[1],-0.6991
same,DLH,[1],-2.223
same,DLS/SDL/SID,[1],-2.0523
same,PD,[1],-2.506
same,PEE,[1],-2.465
same,PVNF,[1],-2.267
same,3-phosphoglycerate,[1],0.2411
same,ADP-D-glucose,[1],0.03562
same,ATP,[1],0.3706
same,CDP,[1],-0.1497
same,D-sedoheptulose-1/7-phosphate,[1],-0.0969
same,FAD,[1],0.4757
same,GMP,[1],0.7431
same,NAD+,[1],0.1538
same,NADP+,[1],0.3743
same,Octoluse Bisphosphate,[1],-0.2246
same,Pyroglutamic acid,[1],0.8685
same,UDP-D-glucose,[1],0.1781
same,UDP-D-glucuronate,[1],0.2234
same,UDP-N-acetyl-glucosamine,[1],0.1163
same,UDP,[1],-0.165
same,UMP,[1],0.01879
same,UTP,[1],0.1488
same,a-ketoglutarate,[1],-1.017
same,citrate/isocitrate,[1],-0.03416
same,cytidine,[1],0.6575
same,dATP,[1],-0.1225
same,dGMP/AMP,[1],-0.03336
same,fumarate,[1],-0.991
same,glucose-1/6-phosphate,[1],0.02998
same,glycerate,[1],-0.7467
same,guanine,[1],-0.195
same,guanosine,[1],-0.4835
same,hypoxanthine,[1],0.1991
same,indole,[1],-0.2191
same,inosine,[1],0.006205
same,2_3-Diphosphoglyceric acid,[1],0.1243
same,4-phosphopantothenate,[1],-0.4271
same,6-phospho-D-gluconate,[1],-0.03292
same,FMN,[1],0.1348
same,IMP,[1],-0.4143
same,Pyrophosphate,[1],0.01603
same,Sedoheptoluse bisphosphate,[1],-0.2052
same,cyclic-AMP,[1],-0.23
same,glutathione disulfide,[1],-0.3848
same,lactate,[1],-0.3481
same,myo-inositol,[1],-0.7715
same,nicotinate,[1],-0.06082
same,ornithine,[1],-0.04541
same,phosphoenolpyruvate,[1],0.2681
same,pyruvate,[1],-0.1725
same,ribose-phosphate,[1],-0.5158
same,sarcosine/alanine,[1],-1.291
same,sn-glycerol-3-phosphate,[1],-0.1021
same,succinate/methylmalonic acid,[1],-0.1585
same,uridine,[1],-0.2002
same,xanthosine,[1],-0.28
same,EC50,P. falciparum,146 nM
COc1ccc(C2=C(c3ccc(OC)cc3)C3(c4ccccc4)C(=O)C2(c2ccccc2)C2C(=O)N(c4ccc(C)cc4)C(=O)C23)cc1 (stereo not drawn) [MMV666101],Acetyllysine,[1],-0.1129
same,N-acetyl-L-ornithine,[1],0.1609
same,N-carbamoyl-L-aspartate,[1],-0.002224
same,NADPH,[1],-0.9507
same,dAMP,[1],-0.2629
same,dCMP,[1],0.3804
same,dTDP,[1],0.03996
same,dTMP,[1],0.002701
same,dTTP,[1],0.2425
same,dihydroorotate,[1],0.3476
same,orotate,[1],-0.884
same,DLH,[1],0.3443
same,DLS/SDL/SID,[1],0.3548
same,PD,[1],0.01018
same,PEE,[1],0.2697
same,PVNF,[1],0.3279
same,3-phosphoglycerate,[1],-0.07386
same,ADP-D-glucose,[1],0.1248
same,ATP,[1],0.5165
same,CDP,[1],0.04064
same,D-sedoheptulose-1/7-phosphate,[1],0.08624
same,FAD,[1],0.1013
same,GMP,[1],0.6118
same,NAD+,[1],-0.01164
same,NADP+,[1],0.3941
same,Octoluse Bisphosphate,[1],0.2807
same,Pyroglutamic acid,[1],0.2222
same,UDP-D-glucose,[1],-0.02174
same,UDP-D-glucuronate,[1],0.06413
same,UDP-N-acetyl-glucosamine,[1],0.01073
same,UDP,[1],0.07085
same,UMP,[1],0.1142
same,UTP,[1],0.03866
same,a-ketoglutarate,[1],-0.8357
same,citrate/isocitrate,[1],-1.04
same,cytidine,[1],0.3993
same,dATP,[1],-0.09007
same,dGMP/AMP,[1],-0.1266
same,fumarate,[1],-0.05622
same,glucose-1/6-phosphate,[1],0.03368
same,glycerate,[1],-0.6868
same,guanine,[1],-0.559
same,guanosine,[1],-0.9392
same,hypoxanthine,[1],-0.6138
same,indole,[1],-0.8533
same,inosine,[1],-0.8697
same,2_3-Diphosphoglyceric acid,[1],0.4338
same,4-phosphopantothenate,[1],-0.011
same,6-phospho-D-gluconate,[1],0.058
same,FMN,[1],0.02064
same,IMP,[1],-0.3616
same,Pyrophosphate,[1],0.3662
same,Sedoheptoluse bisphosphate,[1],0.08206
same,cyclic-AMP,[1],-0.009901
same,glutathione disulfide,[1],0.01065
same,lactate,[1],-0.9335
same,myo-inositol,[1],-1.462
same,nicotinate,[1],-1.016
same,ornithine,[1],-0.4187
same,phosphoenolpyruvate,[1],0.02347
same,pyruvate,[1],-0.8543
same,ribose-phosphate,[1],-0.007312
same,sarcosine/alanine,[1],0.06192
same,sn-glycerol-3-phosphate,[1],-0.02979
same,succinate/methylmalonic acid,[1],-0.01842
same,uridine,[1],-0.9813
same,xanthosine,[1],-0.2752
same,EC50,P. falciparum,148 nM
